Converted amounts (≈) assume the structure as drawn. Where two headings read alike, the source gives them in different places.
Experiments:
[1] = system: HepG2 cells; assay: Cytotoxicity evaluation (CellTiter 96 MTS); assay type: cell-based, human; conditions: read-out: IC50 HepG2
Experimental: Seven esters and their parent salicylanilides with the most robust antimicrobial activity were tested for cytotoxicity in the human hepatocellular liver carcinoma cell line HepG2 (passages 21–24; ECACC, Salisbury, UK) using a standard colorimetric method measuring a tetrazolium salt reduction (CellTiter(R) 96 AQueous One Solution Assay, Promega G3580, Madison, WI, USA).
The cells were routinely cultured in Minimum Essentials Eagle Medium (Sigma-Aldrich, Darmstadt, Germany) supplemented with 10% foetal bovine serum (PAA; Biotech, Prague, Czech Republic), 1% of L-glutamine solution (Sigma-Aldrich), and non-essential amino acids solution (Sigma-Aldrich) in a humidified atmosphere containing 5% CO2 at 37 °C. For subculturing, the cells were harvested after trypsin/EDTA (Sigma-Aldrich) treatment at 37 °C. The cells treated with the tested substances were used as experimental groups. Untreated HepG2 cells were used as control groups.
The cells were seeded in density 1 × 10^4 cells per well in a 96-well plate with microscopic control. Next day, the cells were treated with each of the tested substances. […] The most of the tested compounds were prepared in incubation concentrations of 0.01–20 µM in triplicates. 4-(Trifluoromethyl)benzoic acid was applied in the concentrations of 10–4,000 µM in triplicates. The following types of controls were included: determination of 100% viability and 0% viability (the cells treated by 10% DMSO), no cell control and vehiculum controls. These checking samples were prepared in triplicates.
The treated cells were incubated together with controls at 37 °C for 24 h in 5% CO2 atmosphere. After this time reagent from the kit CellTiter 96 AQueous One Solution Cell Proliferation Assay was added. The CellTiter 96 assay is based on the reduction of tetrazolium salt MTS [3-(4,5-dimethylthiazol-2-yl)-5-(3-carboxymethoxyphenyl)-2-(4-sulfophenyl)-2H-tetrazolium] to water-soluble formazan dye by metabolically active cells. The reduction of the reagent is attributed to availability of NADH or NADPH. The decline in levels of these metabolically important compounds in the cell causes that the production of formazan is reduced. The tested plate was incubated for 2 h at 37 °C and 5% CO2 and after this time, the absorbance was recorded at 490 nm using a 96-well plate reader (TECAN, Infinite M200, Grödig, Austria).
The results were expressed as inhibitory concentration which is necessary to inhibit cell viability to 50% from the maximal (control) viability (IC50). A standard toxicological parameter IC50 was calculated in each of the tested substances using GraphPad Prism software (version 5.02; GraphPad Software Inc., San Diego, CA, USA).

[2] = system: Mycobacterium tuberculosis 331/88 (H37Rv); assay: Antimycobacterial MIC micromethod, Šula's medium; assay type: cell-based; conditions: read-out: MIC Mtb. 331/88
[3] = system: Mycobacterium avium 330/88; assay: Antimycobacterial MIC micromethod; assay type: cell-based
[4] = system: Mycobacterium kansasii 235/80; assay: Antimycobacterial MIC micromethod; assay type: cell-based; conditions: read-out: MIC M. kansasii 235/80
[5] = system: M. kansasii 6509/96 (clinically isolated strain); assay: Antimycobacterial MIC micromethod; assay type: cell-based; conditions: Mycobacterium kansasii, read-out: MIC M. kansasii 6509/96
[6] = system: Mtb. 7357/1988; assay: microbe, parasite or virus in culture; assay type: cell-based; conditions: Mycobacterium tuberculosis, read-out: MIC Mtb. 7357/1988
[7] = system: Mtb. 9449/2006; assay: microbe, parasite or virus in culture; assay type: cell-based; conditions: Mycobacterium tuberculosis, read-out: MIC Mtb. 9449/2006
[8] = system: Mtb. 53/2009; assay: microbe, parasite or virus in culture; assay type: cell-based; conditions: Mycobacterium tuberculosis, read-out: MIC Mtb. 53/2009
[9] = system: Mtb. 234/2005; assay: microbe, parasite or virus in culture; assay type: cell-based; conditions: Mycobacterium tuberculosis, read-out: MIC Mtb. 234/2005
[10] = system: Mtb. Praha 1; assay: microbe, parasite or virus in culture; assay type: cell-based; conditions: Mycobacterium tuberculosis, read-out: MIC Mtb. Praha 1
[11] = system: Mtb. Praha 131 (XDR-TB); assay: microbe, parasite or virus in culture; assay type: cell-based; conditions: Mycobacterium tuberculosis, read-out: MIC Mtb. Praha 131 (XDR-TB)
[12] = biological target: T1, mycobacterial isocitrate lyase (ICL1, Rv0467) (Mycobacterium tuberculosis, UniProt P9WKK7); assay: Isocitrate lyase inhibition assay (ICL1); assay type: biochemical, Mycobacterium tuberculosis H37Rv; conditions: 10 μmol/L; read-out: % ICL inhibition at 10 μmol/L (± standard deviation)
T1 construct: His tag (from pET-28b(+)); made in house; host or cells: E. coli BL21(DE3), pET-28b(+) plasmid
T1 sequence (P9WKK7 1-428): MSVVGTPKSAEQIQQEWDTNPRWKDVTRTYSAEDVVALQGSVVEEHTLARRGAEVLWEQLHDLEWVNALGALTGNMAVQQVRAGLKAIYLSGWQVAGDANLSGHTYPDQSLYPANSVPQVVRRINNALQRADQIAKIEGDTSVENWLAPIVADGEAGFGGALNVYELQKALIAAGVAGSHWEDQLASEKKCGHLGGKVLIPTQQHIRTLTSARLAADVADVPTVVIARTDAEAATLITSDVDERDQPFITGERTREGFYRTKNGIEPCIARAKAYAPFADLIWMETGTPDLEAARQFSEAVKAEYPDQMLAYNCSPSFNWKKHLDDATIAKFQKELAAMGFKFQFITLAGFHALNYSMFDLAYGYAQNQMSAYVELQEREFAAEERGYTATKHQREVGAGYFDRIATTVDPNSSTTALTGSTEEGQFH

[13] = system: Enterococcus sp. J 14365/08; assay: Antibacterial microdilution broth method; assay type: cell-based; conditions: read-out: MIC/IC90 Enterococcus sp. J 14365/08
Experimental: (§1) The in vitro antibacterial activity was assayed against eight Gram-positive and Gram-negative strains: Staphylococcus aureus CCM 4516/08, methicillin-resistant Staphylococcus aureus H 5996/08 (MRSA), Staphylococcus epidermidis H 6966/08, Enterococcus sp. J 14365/08; Escherichia coli CCM 4517, Klebsiella pneumoniae D 11750/08, ESBL-positive Klebsiella pneumoniae J 14368/08, and Pseudomonas aeruginosa CCM 1961.
(§2) The microdilution broth method modified according to standard M07-A07 in Mueller-Hinton broth (HiMedia Laboratories, Mumbai, India) adjusted to pH 7.4 (±0.2) was used. The tested compounds were dissolved in DMSO to the final concentrations ranging from […]. Benzylpenicillin (penicillin G) was used as a comparative drug. Bacterial inoculum in sterile water was prepared to match 0.5 McFarland scale ([…]). The minimum inhibitory concentrations were assayed as 90% (IC90) or higher reduction of growth when compared to the control. The determination of results was performed visually and spectrophotometrically (at 540 nm). The values of MICs were determined after 24 and 48 h of incubation in the darkness at 35 °C (±0.1) in a humid atmosphere.

[14] = system: Escherichia coli CCM 4517; assay: Antibacterial microdilution broth method; assay type: cell-based; conditions: read-out: MIC/IC90 E. coli CCM 4517
Experimental: as §1, §2

[15] = system: Staphylococcus aureus CCM 4516/08; assay: Antibacterial microdilution broth method; assay type: cell-based; conditions: read-out: MIC/IC90 S. aureus CCM 4516/08
Experimental: as §1, §2

[16] = system: Staphylococcus epidermidis H 6966/08; assay: Antibacterial microdilution broth method; assay type: cell-based; conditions: read-out: MIC/IC90 S. epidermidis H 6966/08
Experimental: as §1, §2

[17] = system: methicillin-resistant Staphylococcus aureus H 5996/08 (MRSA); assay: Antibacterial microdilution broth method; assay type: cell-based; conditions: read-out: MIC/IC90 MRSA H 5996/08
Experimental: as §1, §2

Compound: O=C(Nc1ccc(Br)cc1)c1ccc(Cl)cc1O [SAL-4]
- IC50 ([1]; 24 h, cytotoxicity): 1980 nM

Compound: O=C(Oc1ccc(Cl)cc1C(=O)Nc1cccc(Br)c1)c1ccc(C(F)(F)F)cc1 [1g]
- MIC ([2]; 336 h, 14 d): 1 µM (≈ 0.499 µg/mL)
- MIC ([2]; 504 h, 21 d): 2 µM (≈ 0.997 µg/mL)
- MIC ([3]; 330/88, 336 h, 14 d): 2 µM (≈ 0.997 µg/mL)
- MIC ([3]; 330/88, 504 h, 21 d): 8 µM (≈ 3.99 µg/mL)
- MIC ([4]; 235/80, 168 h, 7 d): 2 µM (≈ 0.997 µg/mL)
- MIC ([4]; 235/80, 336 h, 14 d): 4 µM (≈ 1.99 µg/mL)
- MIC ([4]; 235/80, 504 h, 21 d): 4 µM (≈ 1.99 µg/mL)
- MIC ([5]; 168 h, 7 d): 1 µM (≈ 0.499 µg/mL)
- MIC ([5]; 336 h, 14 d): 4 µM (≈ 1.99 µg/mL)
- MIC ([5]; 504 h, 21 d): 4 µM (≈ 1.99 µg/mL)
- MIC ([6]; 336 h): 2 µM (≈ 0.997 µg/mL)
- MIC ([6]; 504 h): 2 µM (≈ 0.997 µg/mL)
- MIC ([7]; 336 h): 1 µM (≈ 0.499 µg/mL)
- MIC ([7]; 504 h): 2 µM (≈ 0.997 µg/mL)
- MIC ([8]; 336 h): 2 µM (≈ 0.997 µg/mL)
- MIC ([8]; 504 h): 2 µM (≈ 0.997 µg/mL)
- MIC ([9]; 336 h): 1 µM (≈ 0.499 µg/mL)
- MIC ([9]; 504 h): 2 µM (≈ 0.997 µg/mL)
- MIC ([10]; 336 h): 1 µM (≈ 0.499 µg/mL)
- MIC ([10]; 504 h): 2 µM (≈ 0.997 µg/mL)
- MIC ([11]; 336 h): 1 µM (≈ 0.499 µg/mL)
- MIC ([11]; 504 h): 2 µM (≈ 0.997 µg/mL)
- inhibition at 10 µM [12]: ≥ 20%
- IC50 ([1]; Homo sapiens, HepG2, 24 h): 2630 nM

Compound: O=C(Nc1ccc(Cl)c(Cl)c1)c1ccc(Cl)cc1O [SAL-2]
- IC50 ([1]; 24 h, cytotoxicity): 1800 nM

Compound: O=C(Nc1ccc(C(F)(F)F)cc1)c1ccc(Cl)cc1O [SAL-6]
- IC50 ([1]; 24 h, cytotoxicity): 690 nM

Compound: O=C(Nc1ccc(Cl)c(Cl)c1)c1cc(Cl)ccc1O [SAL-1]
- IC50 ([1]; 24 h, cytotoxicity): 840 nM

Compound: O=C(Oc1ccc(Cl)cc1C(=O)Nc1ccc(F)cc1)c1ccc(C(F)(F)F)cc1 [1m]
- MIC ([2]; 336 h, 14 d): 8 µM (≈ 3.5 µg/mL)
- MIC ([2]; 504 h, 21 d): 8 µM (≈ 3.5 µg/mL)
- MIC ([3]; 330/88, 336 h, 14 d): 16 µM (≈ 7 µg/mL)
- MIC ([3]; 330/88, 504 h, 21 d): 32 µM (≈ 14 µg/mL)
- MIC ([4]; 235/80, 168 h, 7 d): 4 µM (≈ 1.75 µg/mL)
- MIC ([4]; 235/80, 336 h, 14 d): 16 µM (≈ 7 µg/mL)
- MIC ([4]; 235/80, 504 h, 21 d): 16 µM (≈ 7 µg/mL)
- MIC ([5]; 168 h, 7 d): 8 µM (≈ 3.5 µg/mL)
- MIC ([5]; 336 h, 14 d): 16 µM (≈ 7 µg/mL)
- MIC ([5]; 504 h, 21 d): 16 µM (≈ 7 µg/mL)
- inhibition at 10 µM [12]: ≥ 20%
- MIC ([13]; SP.J14365/08, 24 h): 500 µM (≈ 219 µg/mL)
- MIC ([13]; SP.J14365/08, 48 h): > 500 µM
- MIC ([14]; CCM4517, 24 h): > 500 µM
- MIC ([14]; CCM4517, 48 h): > 500 µM
- MIC ([15]; CCM4516, 24 h): 7.81 µM (≈ 3.42 µg/mL)
- MIC ([15]; CCM4516, 48 h): 7.81 µM (≈ 3.42 µg/mL)
- MIC ([16]; H6966/08, 24 h): 31.2 µM (≈ 13.7 µg/mL)
- MIC ([16]; H6966/08, 48 h): > 500 µM
- MIC ([17]; 24 h): 15.6 µM (≈ 6.84 µg/mL)
- MIC ([17]; 48 h): 15.6 µM (≈ 6.84 µg/mL)

Compound: O=C(Nc1ccc(C(F)(F)F)cc1)c1cc(Br)ccc1O [SAL-7, 5-Bromo-2-hydroxy-N-[4-(trifluoromethyl)phenyl]benzamide]
- IC50 ([1]; Homo sapiens, HepG2, 24 h): 1670 nM

Compound: O=C(Nc1ccc(C(F)(F)F)cc1)c1cc(Cl)ccc1O [SAL-5, 5-chloro-2-hydroxy-N-[4-(trifluoromethyl)phenyl]benzamide]
- IC50 ([1]; Homo sapiens, HepG2, 24 h, cytotoxicity): 360 nM

Compound: O=C(Nc1cccc(Br)c1)c1cc(Cl)ccc1O [SAL-3]
- IC50 ([1]; 24 h, cytotoxicity): 1540 nM

Compound: CC1(C)S[C@@H]2[C@H](NC(=O)Cc3ccccc3)C(=O)N2[C@H]1C(=O)O [PNC, benzylpenicillin, reference compound]
- MIC ([13]; SP.J14365/08, 24 h): 7.81 µM (≈ 2.61 µg/mL)
- MIC ([13]; SP.J14365/08, 48 h): 15.6 µM (≈ 5.22 µg/mL)
- MIC ([14]; CCM4517, 24 h): > 500 µM
- MIC ([14]; CCM4517, 48 h): > 500 µM
- MIC ([15]; CCM4516, 24 h): 0.98 µM (≈ 0.328 µg/mL)
- MIC ([15]; CCM4516, 48 h): 0.98 µM (≈ 0.328 µg/mL)
- MIC ([16]; H6966/08, 24 h): 250 µM (≈ 83.6 µg/mL)
- MIC ([16]; H6966/08, 48 h): 250 µM (≈ 83.6 µg/mL)
- MIC ([17]; 24 h): 62.5 µM (≈ 20.9 µg/mL)
- MIC ([17]; 48 h): 125 µM (≈ 41.8 µg/mL)

From publication PMC6270420, “Antibacterial Activity of Salicylanilide 4-(Trifluoromethyl)benzoates” (Molecules, 2013)
